Source: PMC5982776, “The novel anti-androgen candidate galeterone targets deubiquitinating enzymes, USP12 and USP46, to control prostate cancer growth and survival” (Oncotarget, 2018)

Assays:
USP46 = USP46 (Homo sapiens, UniProt P62068); assay: Biacore SPR dose-dependent binding; IC50 from Ub-AMC enzyme inhibition with USP46/UAF1; format: biochemical
USP12 = USP12 (Homo sapiens, UniProt O75317); assay: Biacore SPR dose-dependent binding; IC50 from Ub-AMC enzyme inhibition with USP12/UAF1; format: biochemical
Chain of USP12 (O75317 whole entry): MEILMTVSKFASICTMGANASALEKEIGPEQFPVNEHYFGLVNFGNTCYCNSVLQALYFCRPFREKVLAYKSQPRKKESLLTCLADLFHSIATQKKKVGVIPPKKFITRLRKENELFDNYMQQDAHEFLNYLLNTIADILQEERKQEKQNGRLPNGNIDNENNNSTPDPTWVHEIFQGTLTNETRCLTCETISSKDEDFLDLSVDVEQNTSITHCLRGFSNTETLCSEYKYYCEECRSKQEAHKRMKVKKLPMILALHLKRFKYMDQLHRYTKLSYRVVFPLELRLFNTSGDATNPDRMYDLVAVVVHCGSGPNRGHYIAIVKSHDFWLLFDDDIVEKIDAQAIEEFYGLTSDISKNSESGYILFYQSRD
Chain of USP12 (Q8TAF3 whole entry partner): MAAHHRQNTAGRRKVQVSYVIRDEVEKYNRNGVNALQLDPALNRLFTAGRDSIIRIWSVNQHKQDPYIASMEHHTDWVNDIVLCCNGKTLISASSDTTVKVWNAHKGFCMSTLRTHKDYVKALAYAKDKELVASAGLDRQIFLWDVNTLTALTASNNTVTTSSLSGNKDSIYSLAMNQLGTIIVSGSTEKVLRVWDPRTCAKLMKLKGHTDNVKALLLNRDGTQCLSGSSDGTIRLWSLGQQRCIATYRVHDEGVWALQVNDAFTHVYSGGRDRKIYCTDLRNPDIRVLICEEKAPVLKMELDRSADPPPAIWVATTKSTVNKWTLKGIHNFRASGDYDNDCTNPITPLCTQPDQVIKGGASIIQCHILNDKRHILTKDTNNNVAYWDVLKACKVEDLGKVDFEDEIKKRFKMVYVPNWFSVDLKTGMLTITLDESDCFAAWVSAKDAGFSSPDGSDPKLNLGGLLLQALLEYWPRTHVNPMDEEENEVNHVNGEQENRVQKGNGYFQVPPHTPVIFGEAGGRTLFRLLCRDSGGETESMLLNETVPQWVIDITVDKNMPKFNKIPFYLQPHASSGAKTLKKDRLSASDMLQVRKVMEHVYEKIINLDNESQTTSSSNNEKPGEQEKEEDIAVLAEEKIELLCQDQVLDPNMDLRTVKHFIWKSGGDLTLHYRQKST

Chain of USP46 (P62068 whole entry): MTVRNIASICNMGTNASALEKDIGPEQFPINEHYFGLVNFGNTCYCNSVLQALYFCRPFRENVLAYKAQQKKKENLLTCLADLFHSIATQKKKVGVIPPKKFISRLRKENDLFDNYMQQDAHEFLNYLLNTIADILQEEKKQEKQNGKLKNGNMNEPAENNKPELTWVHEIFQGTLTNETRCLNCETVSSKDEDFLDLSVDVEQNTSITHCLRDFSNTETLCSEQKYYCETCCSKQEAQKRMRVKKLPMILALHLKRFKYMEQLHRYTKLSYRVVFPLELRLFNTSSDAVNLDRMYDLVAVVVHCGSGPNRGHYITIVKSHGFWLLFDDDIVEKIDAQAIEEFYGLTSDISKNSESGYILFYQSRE
Chain of USP46 (Q8TAF3 whole entry partner): as the sequence (Q8TAF3 whole entry partner) above

IC50 (USP46): 3.4 to 4.2 µM
IC50 (USP12): 2.1 to 3.4 µM
SMILES: C[C@]12CC[C@H](O)CC1=CC[C@@H]1[C@@H]2CC[C@]2(C)C(n3cnc4ccccc43)=CC[C@@H]12 [galeterone]
